Patent US11340219B2, “Anti-pY1235-MET immunological binding reagent” (THE UNITED STATES OF AMERICA AS REPRESENTED BY THE …, priority 2016, dated 2022)
“Also recorded” adds a separate entry of the source. Read-outs that look alike come from different tables or passages of the source. Blank lines part the entries; values can stand above or below the molecule they belong to.

Legend:
GTL-16 tumor xenografts = assay: GTL-16 xenograft tumor growth; format: in vivo, mice
Protocol: Animal models and drug administration. Athymic nude mice (nu/nu NCr; Animal Production Program, NCI-Frederick) were implanted with the human cancer cell lines U87 (glioblastoma); A549 (lung carcinoma); MDA-MB-231 (breast carcinoma); HT-29 (colon carcinoma); or with GTL-16, MKN45, or SNU5 (all gastric carcinomas, MET-amplified) as described (17). […] Sorafenib was dissolved in DMSO for in vitro studies. […] Tivantinib was administered orally in a PEG 400:20% vitamin E tocopheryl polyethylene glycol succinate solution (60:40) vehicle. Fit-for-purpose MET inhibitor studies.

MET = MET (Homo sapiens, UniProt P08581)
Protocol: Fit-for-purpose MET inhibitor studies. […] Extracts of core needle biopsies collected 4 h after tivantinib administration on Day 8 were analyzed for MET, pMET, and hypoxia inducible factor 1, alpha subunit (HIF-1α) (21).
MET immunoassay procedure. The full-length MET immunoassay measures the total levels of full-length MET in tumor tissue samples, irrespective of phosphorylation status. […] Wells were blocked for 2 h with 1×PBS, 0.5% mannitol, 0.2% glycine, and 0.2% BSA, and strips were assembled on 96-well plate frames, freeze-dried, and sealed in desiccated pouches (6-month stability). For the immunoassay, 100 μL each of purified rMET calibrator, controls, and tumor lysates (at protein concentrations of 10-50 μg/mL) prepared in assay buffer (1×PBS/Casein [BioFx] containing PhosSTOP, protease inhibitors and 0.1% Triton X-100 [Roche]) were added to the AF276-coated wells. The rMET assay calibrator was prepared for the dynamic range of the assay. Plates were incubated at ambient temperature (25° C.±3° C.) on an orbital shaker (600 rpm) 1 h to capture MET. After three washes with assay buffer, 100 μL/well 200 ng/mL biotin-conjugated mouse monoclonal MET antibody (clone L41G3) was added to the plates and incubated 1 h at 25° C.±3° C., followed by a second wash and the addition of 100 μL/well 200 ng/mL streptavidin poly-HRP conjugate (Pierce). After 30-min incubation with the HRP-conjugate, plates were washed 4 times and 100 μL SuperSignal ELISA Pico Chemiluminescent Substrate (pierce) was added to each well. Plates were read within 10 min using an Infinite 200 Microplate ELISA reader (Tecan, USA). MET immunoassay calibration curves were analyzed on GraphPad Prism and unknown values were calculated using 4-parameter curve fitting.
Three different pMET immunoassays were developed for the PD studies: pY1234/1235-, pY1235-, and pY1356-MET (Supplemental Material). […] The pMET assay calibrators were prepared for the dynamic range of each assay. Assay control samples were prepared by combining GTL-16, SNU5, A549, MKN45, or U87 xenograft tumor lysates to achieve low, medium, and high MET concentrations at 10 to 50 μg/mL total protein concentrations.

HIF-1α = HIF-1α immunoassay in SNU5 xenograft extracts; format: in vivo; details: SNU5, day 8, pazopanib 100 mg/kg daily, p<0.05
[1] = test system: pY1235-MET in MET-expressing cell lines (GTL-16, HT29, A549); assay: pY1235-MET immunofluorescence staining of treated cancer cell lines; format: cell-based, human; details: 100 nM drug, clone 23111 staining, FIG. 1B
Protocol: MET immunofluorescence analysis. […] Cells were fixed in 10% neutral-buffered formalin (Sigma-Aldrich) for 24 h, pelleted, and then embedded in paraffin. After 5-μm sectioning, antigen retrieval with Bond Epitope Retrieval Solution 2 (at 100° C. for 10 min) and immunofluorescent staining were performed on the Bond-max Autostainer (Leica Biosystems). For antigen detection, 10 μ/mL primary antibody (anti-pY1235-MET, clone 23111) was followed by 10 μg/mL goat anti-rabbit AF488 (Life Technologies). Immunofluorescence microscopy was performed on core needle biopsies of a resected a human HPRC tumor stained with 5 μg/mL anti-full-length MET (clone Met4) followed by 10 μg/mL anti-mouse AF660 (Life Technologies). Image acquisition and analysis were performed on a wide-field fluorescent, confocal microscope (Nikon 90i, Andor Camera, NIS Elements Software).

pY1235-MET = pY1235-MET (Homo sapiens, UniProt P08581); assay: BIAlite-Biosensor interaction analysis of antibody binding affinity; details: range of protein concentrations, details not shown
Protocol: To facilitate bulk production, rabbit monoclonal antibodies (clones 23111 and 7334) were converted into recombinant proteins through transient expression in HEK293 cells (8). The cDNA from rabbit hybridomas was used to clone IgG heavy and light chains in a 7.7 kB ampicillin-resistant mammalian expression vector co-expressing EB oriP, zeocin selection, and CMV promoter for transient expression in HEK293 cells. For mammalian expression plasmids, DNA was prepared using the GenElute XP Maxiprep kit (Sigma-Aldrich) and verified by agarose gel electrophoresis. Recombinant protein production provided typical yields of 100-300 mg/L in suspension cultures. Specificity of antibodies, determined by Western blot using xenograft lysate and rMET protein, was unaffected by this process. To further characterize these MET antibodies, their binding affinities were measured over a range of protein concentrations using interaction analysis performed with a BIAlite-Biosensor (Pharmacia) as previously described (9).

pY1234-MET = assay: Western blot specificity analysis; format: binding; details: FIG. 7A
Protocol: (§1) Rabbits were selected for splenectomy and B-cells were subsequently fused with the rabbit cell line 240E-W2 to produce hybridomas based on high antiserum binding to phosphorylated synthetic peptide and lower or undetectable binding to the nonphosphorylated synthetic peptide of identical sequence. Specificity of the pY1235-MET antibody (clone 23111) was tested by preincubating the antibody with synthetic MET peptides phosphorylated at Y1235 (99% phosphorylated at Y1235, nonphosphorylated at Y1234, 1% other impurities) or at Y1234, or preincubating with recombinant RON (cytoplasmic domain, Millipore) (FIG. 7A). Only preincubation with the pY1235 peptide blocked binding of the antibody to the MET protein band. Specificity of clone 23111 was further confirmed by Western blotting of a GST-fusion with MET amino acids 912-1390 harboring a Y1235D-specific mutation (N-terminal GST-Y1235D-MET peptide, 76 kDa; CarnaBio USA, Inc) and of a recombinant cytoplasmic domain of RON (FIG. 7B). […] According to the manufacturer's specifications, anti-pY1234/1235-MET (clone D26) can also bind to tyrosine phosphorylated SRC proteins by Western blot.
(§2) Protein concentrations were determined by bicinchoninic acid assay (BCA assay), and cell lysate loads between 25 and 50 μg per well were run on 4% to 20% precast polyacrylamide gradient gels (Bio-Rad Laboratories) for SDS-PAGE at 100 V for up to 2 hours. Proteins separated by gel electrophoresis were transferred to a nitrocellulose membrane using the Mini-PROTEAN Tetra electrophoresis system (Bio-Rad) at 90 V for 4 hours at 2° C. to 8° C. Membranes were blocked in Odyssey blocking buffer (LI-COR) for 1 hour at 25° C.±3° C. Blots were probed first with 1 μg/mL mouse, rabbit, or goat anti-MET monoclonal antibody in Odyssey blocking buffer overnight at 2° C. to 8° C. with slow orbital shaking and then with an IR dye-labeled secondary antibody against mouse, rabbit, or goat antibody (1:5000 in Odyssey blocking buffer; LI-COR) for 1 hour at 25° C.±3° C. with orbital shaking. Blots were visualized using the Odyssey Infrared imager (LI-COR). […]

[2] = target: T1, recombinant Y1235D-MET peptide (N-terminal GST-Y1235D-MET) (Homo sapiens, UniProt P08581, Y1235D); assay: Western blot specificity analysis; format: binding; details: FIG. 7B
T1 construct: a GST-fusion with MET amino acids 912-1390 harboring a Y1235D-specific mutation; purchased CarnaBio USA, Inc
Protocol: as §1, §2

[3] = target: T2, recombinant cytoplasmic domain of RON (Homo sapiens, UniProt Q04912); assay: Western blot specificity analysis; format: binding; details: FIGS. 7A and 7B
T2 construct: preincubating with recombinant RON (cytoplasmic domain, Millipore); purchased Millipore
T2 sequence (Q04912 979-1400 limits assumed): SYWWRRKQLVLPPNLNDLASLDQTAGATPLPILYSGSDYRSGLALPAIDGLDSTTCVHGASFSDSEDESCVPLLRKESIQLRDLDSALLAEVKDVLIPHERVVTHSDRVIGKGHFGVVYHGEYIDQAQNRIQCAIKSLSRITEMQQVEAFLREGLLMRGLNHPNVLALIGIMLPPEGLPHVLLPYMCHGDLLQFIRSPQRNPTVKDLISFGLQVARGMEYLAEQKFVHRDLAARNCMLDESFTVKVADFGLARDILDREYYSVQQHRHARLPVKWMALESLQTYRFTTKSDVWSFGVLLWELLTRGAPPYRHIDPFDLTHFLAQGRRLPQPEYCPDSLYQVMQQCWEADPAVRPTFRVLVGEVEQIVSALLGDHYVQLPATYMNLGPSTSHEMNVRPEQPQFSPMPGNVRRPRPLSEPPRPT
Protocol: as §1, §2

- reduction in pY1235-MET:MET ratio (MET; GTL-16, 25 mg/kg IP, 4 h after first dose): 62%
- reduction in pY1235-MET:MET ratio (MET; GTL-16, 50 mg/kg IP, 4 h after first dose): 80%
- reduction in pY1235-MET:MET ratio (MET; GTL-16, 4 h after the first dose (discussion summary)): 60-80%
- pY1356-MET:MET ratio (MET; GTL-16, PHA665752 after first dose, recovered to normal within 20 h): declined after the first dose
Molecule: Cc1[nH]c(/C=C2\C(=O)Nc3ccc(S(=O)(=O)Cc4c(Cl)cccc4Cl)cc32)c(C)c1C(=O)N1CCC[C@@H]1CN1CCCC1 [PHA665752]
- tumor growth (GTL-16 tumor xenografts; 25 and 50 mg/kg/day IP, after 8-10 days of treatment): achieved tumor stasis

Molecule: Cc1ccc(Nc2nccc(N(C)c3ccc4c(C)n(C)nc4c3)n2)cc1S(N)(=O)=O [pazopanib]
- increase in HIF-1α levels (HIF-1α): 46%

Molecule: CNC(=O)c1cc(Oc2ccc(NC(=O)Nc3ccc(Cl)c(C(F)(F)F)c3)cc2)ccn1 [sorafenib]
- sensitivity of pY1235-MET plasma membrane staining to drug [1]: not

Molecule: C[C@@H](Oc1cc(-c2cnn(C3CCNCC3)c2)cnc1N)c1c(Cl)ccc(F)c1Cl [PF02341066, crizotinib]
- tumor growth (GTL-16 tumor xenografts; daily oral 25 mg/kg, by the seventh day of treatment): achieved stasis

- IC50 (pY1235-MET): 1.2 nM
- cross-reactivity with cytoplasmic domain of RON [3]: no cross-reactivity
B1: clone 23111: rabbit monoclonal antibody specific to pY1235-MET; VH SEQ ID NO:1, VL SEQ ID NO:2 (antibody, V domains shown)
VH: QSVEESGGRLVTPGTPLTLTCTVSGFSLSNYAMGWFRQAPGKGLEWIGIISRSGALWYANWANGRFTISKTSTTVDLKITSPTPEDTATYFCARTNYYDGYGGVDAVLTRFDFWGQGTLVTVSSG
VL: ADVVMTQTPSSVEAAVGGTVTIKCQASQSIGGGLSWYQQKAGQPPKLLIYGASTLESGVPSRFKGSGSGTEFTLTISDLECADAATYYCQSNYGSDIRDYGHTFGGGTEVVVKGDPVAPTVLIFPP
- reactivity with MET epitope phosphorylated only at Y1234 (pY1234-MET): no cross-reactivity; also recorded: undetectable reactivity
- reactivity with Y1235D-MET (tyrosine 1235 replaced by aspartic acid) [2]: no cross-reactivity; also recorded: undetectable cross-reactivity
